Our source for the Emax and EC50 values is patent US20250002507A1, “7,8-DIHYDRO-5H-1,6-NAPHTHYRIDINE DERIVATIVES AS POSITIVE ALLOSTERIC MODULATORS OF THE MUSCARINIC ACETYLCHOLINE RECEPTOR M4 FOR TREATING NEUROLOGICAL AND PSYCHIATRIC DISORDERS” (Vanderbilt University, priority 2021, published 2025).

Like-named read-outs stand apart in the source and are kept apart here.

For this assay, the target named is T1, Human M4 (Homo sapiens, UniProt P08173).
T1 construct: expressed in transfected cells
T1 sequence (P08173 1-479): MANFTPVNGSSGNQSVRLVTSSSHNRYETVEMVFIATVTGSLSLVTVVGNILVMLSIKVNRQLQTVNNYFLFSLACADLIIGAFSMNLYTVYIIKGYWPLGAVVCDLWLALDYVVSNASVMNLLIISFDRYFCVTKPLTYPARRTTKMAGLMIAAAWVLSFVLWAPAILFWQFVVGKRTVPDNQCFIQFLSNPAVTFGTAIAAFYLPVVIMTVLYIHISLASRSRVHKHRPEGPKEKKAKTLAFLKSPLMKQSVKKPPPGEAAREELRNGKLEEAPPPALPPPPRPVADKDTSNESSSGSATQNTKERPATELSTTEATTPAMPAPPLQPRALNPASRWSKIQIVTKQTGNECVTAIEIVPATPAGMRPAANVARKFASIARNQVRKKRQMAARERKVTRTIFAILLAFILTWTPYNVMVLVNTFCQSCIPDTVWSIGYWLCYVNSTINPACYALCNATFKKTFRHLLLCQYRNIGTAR
In words: mAChR M4 cell-based functional assay (calcium flux, potentiation of EC20 acetylcholine response), hM4-Gqi5 CHO-K1 cells. The following applies: for Emax at 30 µM: CHO-K1, % ACh maximum at 30 μM; for EC50: calcium flux, read-out: Human M4 EC50. The method, boiled down: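 Positive allosteric modulation was scored as a concentration-dependent rise in the response to an EC20 dose of acetylcholine, added 144 s after the compound. Human M4-Gqi5 CHO-K1 cells carried Fluo-4 dye, and compounds ran as 11-point, 3-fold dilution series. EC50 and Emax came from four-parameter logistic fits of the FDSS fluorescence-ratio traces.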

Where [1] appears, read: Table 3, Human M4, read-out: Emax (% ACh maximum at 30 μM).
Setting [2] is: Table 3, potentiation of EC20 acetylcholine response, CHO-K1 cells.
Setting [3] is: hM4-Gqi5 CHO-K1 cells, PAM of EC20 acetylcholine.
Setting [4] is: Table 4, Human M4, read-out: Emax (% ACh maximum at 30 μM).
[5] abbreviates: Table 4, potentiation of EC20 acetylcholine response, CHO-K1 cells.

Take `Cc1c(N2CCc3ncc(-c4cnn(Cc5ccccc5)c4)cc3C2)nn2c(C(F)(F)F)nnc2c1C` [Compound 238, 3-(1-benzyl-1H-pyrazol-4-yl)-6-(7,8-dimethyl-3-(trifluoromethyl)-[1,2,4]triazolo[4,3-b]pyridazin-6-yl)-5,6,7,8-tetrahydro-1,6-naphthyridine]: under setting [1], the Emax at 30 µM was 55%. The EC50 under setting [2] worked out at 1.31 µM. On to `COc1ccc(-c2cnc3c(c2)CN(c2nn4cnnc4c(C)c2C)CC3)cn1` [Compound 43, 6-(7,8-dimethyl-[1,2,4]triazolo[4,3-b]pyridazin-6-yl)-3-(6-methoxy-3-pyridyl)-7,8-dihydro-5H-1,6-naphthyridine], for which, for the setting “human M4, read-out: Emax”, the Emax at 30 µM was determined as 94%. In addition, under setting [3], the EC50 amounted to 0.182 µM. Consider `Cc1c(N2CCc3ncc(Oc4ccc(F)cc4)cc3C2)nn2cnnc2c1C` [Compound 4, 6-(7,8-dimethyl-[1,2,4]triazolo[4,3-b]pyridazin-6-yl)-3-(4-fluorophenoxy)-7,8-dihydro-5H-1,6-naphthyridine], for which the Emax at 30 µM (human M4, read-out: Emax) was determined as 87%. For the same compound, the EC50 under setting [3] was found to be 0.322 µM. For the compound `COc1cnc(Cl)c(-c2cnc3c(c2)CN(c2nn4cnnc4c(C)c2C)CC3)c1` [Compound 178, 3-(2-chloro-5-methoxypyridin-3-yl)-6-(7,8-dimethyl-[1,2,4]triazolo[4,3-b]pyridazin-6-yl)-5,6,7,8-tetrahydro-1,6-naphthyridine], the Emax at 30 µM under setting [1] was found to be 85%. The EC50 under setting [2] came to 0.578 µM. With `Cc1c(N2CCc3ncc(Cc4cccc(F)c4)cc3C2)nn2cnnc2c1C` [Compound 311, 6-(7,8-dimethyl-[1,2,4]triazolo[4,3-b]pyridazin-6-yl)-3-(3-fluorobenzyl)-5,6,7,8-tetrahydro-1,6-naphthyridine], the Emax at 30 µM under setting [4] came out at 81%. For the same compound, under setting [5], the EC50 amounted to 0.246 µM.

Take `[2H]C1([2H])Cc2ncc(Nc3cc(C)ncc3F)cc2C([2H])([2H])N1c1nn2cnnc2cc1C` [Compound 352, N-(5-fluoro-2-methylpyridin-4-yl)-6-(7-methyl-[1,2,4]triazolo[4,3-b]pyridazin-6-yl)-5,6,7,8-tetrahydro-1,6-naphthyridin-5,5,7,7-d4-3-amine]: under setting [4], the Emax at 30 µM amounted to 98%. Further, the EC50 under setting [5] was found to be 0.067 µM.

In the case of `Cc1c(N2CCc3ncc(-c4cnn(CC5CC5)c4)cc3C2)nn2c(C)nnc2c1C` [Compound 89, 3-[1-(cyclopropylmethyl)pyrazol-4-yl]-6-(3,7,8-trimethyl-[1,2,4]triazolo[4,3-b]pyridazin-6-yl)-7,8-dihydro-5H-1,6-naphthyridine], for the setting “human M4, read-out: Emax”, the Emax at 30 µM was found to be 91%. Also, under setting [3], the EC50 was found to be 0.291 µM. The corresponding values for `Cc1c(N2CCc3ncc(Nc4c(F)cccc4F)cc3C2)nn2cnnc2c1C` [Compound 47, N-(2,6-difluorophenyl)-6-(7,8-dimethyl-[1,2,4]triazolo[4,3-b]pyridazin-6-yl)-7,8-dihydro-5H-1,6-naphthyridin-3-amine] are 80% and 0.0921 µM. For `Cc1cc2nncn2nc1N1CCc2ncc(-c3cn(C)nc3C)cc2C1` [Compound 113, 3-(1,3-dimethylpyrazol-4-yl)-6-(7-methyl-[1,2,4]triazolo[4,3-b]pyridazin-6-yl)-7,8-dihydro-5H-1,6-naphthyridine] the same measures were 97% and 0.33 µM. In the case of `Cc1c(N2CCc3ncc(C(=O)N4CCN(C5CC5)CC4)cc3C2)nn2cnnc2c1C` [Compound 122, (4-cyclopropylpiperazin-1-yl)-[6-(7,8-dimethyl-[1,2,4]triazolo[4,3-b]pyridazin-6-yl)-7,8-dihydro-5H-1,6-naphthyridin-3-yl]methanone], the Emax at 30 µM (human M4, read-out: Emax) stood at 51%. Take `Cc1cc2nnc(C(F)(F)F)n2nc1N1CCc2ncc(N3CCOC(c4ccccn4)C3)cc2C1` (centres unmarked) [Compound 326, 4-(6-(7-methyl-3-(trifluoromethyl)-[1,2,4]triazolo[4,3-b]pyridazin-6-yl)-5,6,7,8-tetrahydro-1,6-naphthyridin-3-yl)-2-(pyridin-2-yl)morpholine]: under setting [4], the Emax at 30 µM was found to be 62%. Besides, the EC50 under setting [5] was determined as 2.08 µM. With `Cc1cc2nccn2nc1N1CCc2ncc(-c3cnn(CC(C)C)c3)cc2C1` [Compound 144, 3-(1-isobutylpyrazol-4-yl)-6-(7-methylimidazo[1,2-b]pyridazin-6-yl)-7,8-dihydro-5H-1,6-naphthyridine], the Emax at 30 µM (human M4, read-out: Emax) came to 44%. The EC50 under setting [3] is 0.266 µM. On to `CCn1cc(-c2cnc3c(c2)CN(c2nn4c(C(F)(F)F)nnc4c(C)c2C)CC3)cn1` [Compound 237, 6-(7,8-dimethyl-3-(trifluoromethyl)-[1,2,4]triazolo[4,3-b]pyridazin-6-yl)-3-(1-ethyl-1H-pyrazol-4-yl)-5,6,7,8-tetrahydro-1,6-naphthyridine], for which the Emax at 30 µM under setting [1] amounted to 84%. The EC50 under setting [2] turned out to be 0.332 µM. On to `Cc1c(N2CCc3ncc(-c4cccnc4)cc3C2)nn2cnnc2c1C` [Compound 44, 6-(7,8-dimethyl-[1,2,4]triazolo[4,3-b]pyridazin-6-yl)-3-(3-pyridyl)-7,8-dihydro-5H-1,6-naphthyridine], for which the Emax at 30 µM (human M4, read-out: Emax) is 92%. Moreover, under setting [3], the EC50 was 0.147 µM. As for `Cc1cc(C)n(-c2cnc3c(c2)CN(c2nn4c(C(F)(F)F)nnc4c(C)c2C)CC3)n1` [Compound 243, 3-(3,5-dimethyl-1H-pyrazol-1-yl)-6-(7,8-dimethyl-3-(trifluoromethyl)-[1,2,4]triazolo[4,3-b]pyridazin-6-yl)-5,6,7,8-tetrahydro-1,6-naphthyridine], the Emax at 30 µM under setting [1] came to 77%. In addition, the EC50 under setting [2] is 0.729 µM. With `Cc1c(N2CCc3ncc(OCC4CC4)cc3C2)nn2cnnc2c1C` [Compound 261, 3-(cyclopropylmethoxy)-6-(7,8-dimethyl-[1,2,4]triazolo[4,3-b]pyridazin-6-yl)-5,6,7,8-tetrahydro-1,6-naphthyridine], under setting [1], the Emax at 30 µM worked out at 90%. In addition, the EC50 under setting [2] is 0.331 µM.

Take `Cc1c(N2CCc3ncc(NC4CCCC4)cc3C2)nn2c(C(F)(F)F)nnc2c1C` [Compound 272, N-cyclopentyl-6-(7,8-dimethyl-3-(trifluoromethyl)-[1,2,4]triazolo[4,3-b]pyridazin-6-yl)-5,6,7,8-tetrahydro-1,6-naphthyridin-3-amine]: the Emax at 30 µM under setting [1] came to 87%. Further, the EC50 under setting [2] was found to be 0.831 µM. Turning to `Cc1c(N2CCc3ncc(C4CC4)cc3C2)nn2c(C(F)(F)F)nnc2c1C` [Compound 222, 3-cyclopropyl-6-(7,8-dimethyl-3-(trifluoromethyl)-[1,2,4]triazolo[4,3-b]pyridazin-6-yl)-5,6,7,8-tetrahydro-1,6-naphthyridine], the Emax at 30 µM under setting [1] was 83%. Moreover, under setting [2], the EC50 came to 0.088 µM. Take `Cc1cc2cncn2nc1N1CCc2ncc(C(F)(F)F)cc2C1` [Compound 340, 6-(3-methylimidazo[1,5-b]pyridazin-2-yl)-3-(trifluoromethyl)-5,6,7,8-tetrahydro-1,6-naphthyridine]: the Emax at 30 µM under setting [4] was 84%. For the same compound, the EC50 under setting [5] stood at 0.431 µM. `Cc1c(N2CCc3ncc(-c4ccc(-n5ccnc5)nc4)cc3C2)nn2cnnc2c1C` [Compound 192, 3-(6-(1H-imidazol-1-yl)pyridin-3-yl)-6-(7,8-dimethyl-[1,2,4]triazolo[4,3-b]pyridazin-6-yl)-5,6,7,8-tetrahydro-1,6-naphthyridine]: under setting [1], the Emax at 30 µM amounted to 72%. Also, the EC50 under setting [2] worked out at 0.281 µM.

`Cc1c(N2CCc3ncc(Oc4ccc5c(c4)OCCO5)cc3C2)nn2cnnc2c1C` [Compound 7, 3-(2,3-dihydro-1,4-benzodioxin-6-yloxy)-6-(7,8-dimethyl-[1,2,4]triazolo[4,3-b]pyridazin-6-yl)-7,8-dihydro-5H-1,6-naphthyridine]: the Emax at 30 µM (human M4, read-out: Emax) came out at 63%. Further, the EC50 under setting [3] turned out to be 0.295 µM. As to `Cc1c(N2CCc3ncc(O)cc3C2)nn2cnnc2c1C` [Compound 220, 6-(7,8-dimethyl-[1,2,4]triazolo[4,3-b]pyridazin-6-yl)-5,6,7,8-tetrahydro-1,6-naphthyridin-3-ol], the Emax (CHO-K1, read-out: Emax (% ACh maximum at 30 μM)) worked out at 81%. In addition, the EC50 under setting [2] was 1.37 µM. As to `Cc1c(N2CCc3ncc(N4CCOCC4)cc3C2)nn2c(C(F)(F)F)nnc2c1C` [Compound 271, 4-(6-(7,8-dimethyl-3-(trifluoromethyl)-[1,2,4]triazolo[4,3-b]pyridazin-6-yl)-5,6,7,8-tetrahydro-1,6-naphthyridin-3-yl)morpholine], under setting [1], the Emax at 30 µM came out at 89%. For the same compound, the EC50 under setting [2] came to 0.264 µM. With `Cc1c(N2CCc3ncc(-c4cnn(Cc5ccccc5)c4)cc3C2)nn2cnnc2c1C` [Compound 63, 3-(1-benzylpyrazol-4-yl)-6-(7,8-dimethyl-[1,2,4]triazolo[4,3-b]pyridazin-6-yl)-7,8-dihydro-5H-1,6-naphthyridine], the Emax at 30 µM (human M4, read-out: Emax) was determined as 94%. Moreover, the EC50 under setting [3] was 0.262 µM.
